Data: PMC7898822, “RNA‐PROTACs: Degraders of RNA‐Binding Proteins” (Angewandte Chemie (International Ed. in English), 2020)
Read-outs that look alike come from different tables or passages of the source.

Legend:
Lin28_ZKD [1] = molecular target: T1, Lin28_ZKD (Homo sapiens, UniProt Q9H9Z2); assay: Fluorescence polarization competition assay (displacement of let7FAM from Lin28_ZKD); format: binding
T1 construct: construct encoding amino acids 124–186 of human Lin28; His6; made in house; host or cells: Escherichia coli BL21 (DE3) Codon+ (RIL)
T1 sequence (Q9H9Z2 124-186): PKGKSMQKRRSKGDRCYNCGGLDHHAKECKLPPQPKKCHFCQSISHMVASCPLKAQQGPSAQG
Procedure: Fluorescence Polarization Assay. Fluorescence polarization titration assay was carried out by titrating Lin28_ZKD protein into FAM-labeled PreE-let-7 at a 10 nM final concentration and buffer (10 mM HEPES, 150 mM NaCl, 10 µM ZiCl2, pH 7,4). The assay plate was briefly vortexed, and air bubbles were removed by spinning at 1000 rpm. The fluorescence anisotropy was measured on a Spectra Max Paradigm multimode plate reader (Molecular Devices). The fluorescence polarization competition […]
preE-let-7. The concentration of Lin28_ ZKD is kept at 40 nM, a value in the range of the dissociation constant of Lin28_ZKD and preE-let-7 determined through fluorescence polarization titration assay, whereas preE-let-7 concentration is kept constant at 10 nM. FP competitive binding assays were performed on 384-well plates (#3575, Corning) with a total well volume of 10 µL.
Fluorescence polarization readings were transferred into Prism 7.0 (GraphPad). All fluorescence polarization assays were repeated at least three times and the anisotropy values fitted using GraphPad Prism software using 1:1 binding/inhibition model. […]

Lin28A = assay: Western blot of Lin28A in K562 cells; format: cell-based, human; conditions: K562 cells, 48 h, western blot; three independent experiments
Excerpt: Finally, we tested RNA‐PROTACs for their ability to degrade their target in two cell lines: the embryonic NT2/D1 cell line, which expresses high levels of Lin28A, ^[13a] and K562 cells which express Lin28A and Lin28B. […] Finally, we co‐treated K562 cells with ORN3P1 and MG132, a reversible inhibitor of the 26S proteasome. […] In order to explore the versatility of RNA‐PROTACs with non peptide‐based VHL ligands, we conjugated small‐molecule VH032 ^[38] to ORN3 via an amino linker to yield ORN3VH032 (Figure S1). […]

Lin28_ZKD [2] = molecular target: T1, Lin28_ZKD; assay: NMR 1H-15N HSQC titration of Lin28_ZKD; format: binding; conditions: 10 mM HEPES pH 7.0, 303K
Excerpt: The oligonucleotide element of an RNA‐PROTAC binds its target RBP via interactions at the riboses and the backbone, as well as the nucleobases. […] Thus, we used the same method to examine how various ribose modifications of L28RBE (Table 1, Figure S1) might affect binding of an RNA‐PROTAC to Lin28_ZKD.

K562 cells = assay: Intracellular uptake of FAM-labelled oligonucleotides, fluorescence microscopy; format: cell-based, human; conditions: FAM-conjugated, 1 µM, 24 h

For `CC[C@H](C)[C@H](NC(=O)[C@H](Cc1ccc(O)cc1)NC(=O)[C@@H]1C[C@@H](O)CN1C(=O)[C@H](C)NC(=O)[C@H](CC(C)C)NC(=O)CCCCCNC(=O)[C@@H](N)CSC1CC(=O)N(CCOP(=O)(S)OC[C@H]2O[C@@H](n3cnc4c(N)ncnc43)[C@H](OC)[C@@H]2OP(=O)(S)OC[C@H]2O[C@@H](n3cnc4c(=O)[nH]c(N)nc43)[C@H](OC)[C@@H]2OP(=O)(S)OC[C@H]2O[C@@H](n3cnc4c(=O)[nH]c(N)nc43)[C@H](OC)[C@@H]2OP(=O)(S)OC[C@H]2O[C@@H](n3cnc4c(N)ncnc43)[C@H](OC)[C@@H]2OP(=O)(S)OC[C@H]2O[C@@H](n3cnc4c(=O)[nH]c(N)nc43)[C@H](OC)[C@@H]2OP(=O)(S)OC[C@H]2O[C@@H](n3cnc4c(N)ncnc43)[C@H](OC)[C@@H]2OP(=O)(S)OC[C@H]2O[C@@H](n3ccc(=O)[nH]c3=O)[C@H](OC)[C@@H]2O)C1=O)C(=O)O` (stereo partly drawn) [ORN4P1], the IC50 (Lin28_ZKD [1]) was 208 ± 27.4 nM.

Work on `CCCC[C@H](NC(=O)[C@H](C)NC(=O)[C@H](CC(C)C)NC(=O)CCCCCNC(=O)[C@@H](N)CSC1CC(=O)N(CCOP(=O)(S)OC[C@H]2O[C@@H](n3cnc4c(N)ncnc43)[C@H](OC)[C@@H]2OP(=O)(S)OC[C@H]2O[C@@H](n3cnc4c(=O)[nH]c(N)nc43)[C@H](OC)[C@@H]2OP(=O)(S)OC[C@H]2O[C@@H](n3cnc4c(=O)[nH]c(N)nc43)[C@H](OC)[C@@H]2OP(=O)(S)OC[C@H]2O[C@@H](n3cnc4c(N)ncnc43)[C@H](OC)[C@@H]2OP(=O)(S)OC[C@H]2O[C@@H](n3cnc4c(=O)[nH]c(N)nc43)[C@H](OC)[C@@H]2OP(=O)(S)OC[C@H]2O[C@@H](n3cnc4c(N)ncnc43)[C@H](OC)[C@@H]2OP(=O)(S)OC[C@H]2O[C@@H](n3ccc(=O)[nH]c3=O)[C@H](OC)[C@@H]2O)C1=O)C(=O)N[C@@H](Cc1ccc(O)cc1)C(=O)N[C@H](C(=O)O)[C@@H](C)CC` (stereo partly drawn) [ORN4Pcon] yielded an IC50 (Lin28_ZKD [1]) of 206 ± 2.1 nM.

In the case of `CC[C@H](C)[C@H](NC(=O)[C@H](Cc1ccc(O)cc1)NC(=O)[C@@H]1C[C@@H](O)CN1C(=O)[C@H](C)NC(=O)[C@H](CC(C)C)NC(=O)CCCCCNC(=O)[C@@H](N)CSC1CC(=O)N(CCOP(=O)(S)OC[C@H]2O[C@@H](n3cc(C)c(=O)[nH]c3=O)[C@H](OCCOC)[C@@H]2OP(=O)(S)OC[C@H]2O[C@@H](n3cc(C)c(=O)[nH]c3=O)[C@H](OCCOC)[C@@H]2OP(=O)(S)OC[C@H]2O[C@@H](n3cc(C)c(=O)[nH]c3=O)[C@H](OCCOC)[C@@H]2OP(=O)(S)OC[C@H]2O[C@@H](n3cnc4c(N)ncnc43)[C@H](OCCOC)[C@@H]2OP(=O)(S)OC[C@H]2O[C@@H](n3cc(C)c(=O)[nH]c3=O)[C@H](OCCOC)[C@@H]2OP(=O)(S)OC[C@H]2O[C@@H](n3cc(C)c(=O)[nH]c3=O)[C@H](OCCOC)[C@@H]2OP(=O)(S)OC[C@H]2O[C@@H](n3cnc4c(=O)[nH]c(N)nc43)[C@H](OCCOC)[C@@H]2O)C1=O)C(=O)O` (stereo partly drawn) [ORN5P1], the “activity in FP competition assay (in words)” value (Lin28_ZKD [1]; displacement of let7FAM from Lin28_ZKD) is reported as “weak effect on Lin28_ZKD” and the “Lin28A suppression (in words)” value (Lin28A) is reported as “inactive”.

With “ORN7: AGGAGAUAACU, PS-MOE (all 2'-MOE, all phosphorothioate, methylation of C and T or U not given here; further chemistry not fully specified)” the IC50 (Lin28_ZKD [1]; Table 1, 40 nM Lin28_ZKD, 10 nM FAM-preE-let-7, 10 mM HEPES, 150 mM NaCl, pH 7.4, 30 min at 25 °C, 384-well, repeated at least three times, read-out: IC 50 determined by fluorescence polarization) was 162 ± 38 nM, the “NMR chemical shift perturbation / signal change of Lin28_ZKD” value (Lin28_ZKD [2]; 1H-15N HSQC, 1:1 ratio) was “some of the NMR signals broadened or disappeared” and the “precipitation with Lin28_ZKD in NMR titration” value (Lin28_ZKD [2]; at higher concentrations) was “precipitation at higher concentrations was also observed”. For the same compound, the intracellular localization (K562 cells) was “visible in the cytosol and the nuclei of cells” and the relative uptake (K562 cells; compared with ORN3) was “higher than that of ORN3”.
